Data on one compound can be found in PMC10574883, “Harnessing the Bioactive Potential of Limonium spathulatum (Desf.) Kuntze: Insights into Enzyme Inhibition and Phytochemical Profile” (Plants, 2023).

The assay deals with T1, tyrosinase from mushroom.
T1 construct: gene PPO3; commercial native mushroom enzyme (Fischer Scientific)
Description: tyrosinase inhibition assay. The assay is classed as biochemical. The note with it: positive control; anomer of arbutin not stated. From the text: tyrosinase inhibition assay on tyrosinase from mushroom

Regarding `OC[C@H]1O[C@@H](Oc2ccc(O)cc2)[C@H](O)[C@@H](O)[C@@H]1O` [Arbutin], the Tyrosinase was determined as 0.17 ± 0.01 mg/mL.
